Results from ChEMBL document CHEMBL5244230, “Artemisinin-derived hybrids and their anticancer activity” (Eur J Med Chem, 2020).

tested on: HeLa; assay: Cytotoxicity against human HeLa cells assessed as cell growth inhibition measured after 48 hrs by MTT assay; assay type: functional; conditions: not given

Q: With `CCCCCc1ccc(-c2cn([C@@H]3O[C@@H]4O[C@@]5(C)CC[C@H]6[C@H](C)CC[C@@H]([C@H]3C)[C@@]46OO5)nn2)cc1` as the compound, how does the GI50 read?
A: Its GI50 is 50 nM.

Q: With `C[C@H]1[C@H](n2nncc2-c2ccccc2)O[C@@H]2O[C@@]3(C)CC[C@H]4[C@H](C)CC[C@@H]1[C@@]24OO3` as the compound, how does the GI50 read?
A: The GI50 was 40 nM.

Q: With `C[C@H]1[C@H](n2cc(-c3cc(F)cc(F)c3)nn2)O[C@@H]2O[C@@]3(C)CC[C@H]4[C@H](C)CC[C@@H]1[C@@]24OO3` as the compound, how does the GI50 read?
A: The GI50 was 50 nM.

Q: With `C[C@@H]1[C@@H](n2cc(-c3cccc(Cl)c3)nn2)O[C@@H]2O[C@@]3(C)CC[C@H]4[C@H](C)CC[C@@H]1[C@@]24OO3` as the compound, how does the GI50 read?
A: The GI50 was 30 nM.

Q: Which GI50 does the source give for `C[C@@H]1CC[C@H]2[C@@H](C)C(n3cc(-c4ccc(F)cc4)nn3)O[C@@H]3O[C@@]4(C)CC[C@@H]1[C@]32OO4` (stereo partly drawn) here?
A: Its GI50 is 50 nM.

Q: With `C[C@@H]1[C@@H](n2cc(-c3cc(F)cc(F)c3)nn2)O[C@@H]2O[C@@]3(C)CC[C@H]4[C@H](C)CC[C@@H]1[C@@]24OO3` as the compound, how does the GI50 read?
A: The GI50 was 30 nM.

Q: For `C[C@@H]1[C@@H](n2cc(-c3ccccc3C(F)(F)F)nn2)O[C@@H]2O[C@@]3(C)CC[C@H]4[C@H](C)CC[C@@H]1[C@@]24OO3`, which GI50 is on record?
A: Its GI50 is 30 nM.

Q: For `Cc1ccc(-c2cn(C3O[C@@H]4O[C@@]5(C)CC[C@H]6[C@H](C)CC[C@@H]([C@H]3C)[C@@]46OO5)nn2)cc1` (stereo partly drawn), which GI50 is on record?
A: The GI50 was 50 nM.

tested on: not listed separately; assay: Cytotoxicity against human U87 cells assessed as cell growth inhibition measured after 48 hrs by MTT assay; assay type: functional, U-87MG ATCC; conditions: U-87 MG

Q: Which GI50 does the source give for `CCCCCc1ccc(-c2cn([C@@H]3O[C@@H]4O[C@@]5(C)CC[C@H]6[C@H](C)CC[C@@H]([C@H]3C)[C@@]46OO5)nn2)cc1` here?
A: Its GI50 is 50 nM.

Q: With `C[C@H]1[C@H](n2nncc2-c2ccccc2)O[C@@H]2O[C@@]3(C)CC[C@H]4[C@H](C)CC[C@@H]1[C@@]24OO3` as the compound, how does the GI50 read?
A: The GI50 was 40 nM.

Q: Which GI50 does the source give for `C[C@H]1[C@H](n2cc(-c3cc(F)cc(F)c3)nn2)O[C@@H]2O[C@@]3(C)CC[C@H]4[C@H](C)CC[C@@H]1[C@@]24OO3` here?
A: The GI50 was 50 nM.

Q: With `C[C@@H]1[C@@H](n2cc(-c3cccc(Cl)c3)nn2)O[C@@H]2O[C@@]3(C)CC[C@H]4[C@H](C)CC[C@@H]1[C@@]24OO3` as the compound, how does the GI50 read?
A: Its GI50 is 30 nM.

Q: Which GI50 does the source give for `C[C@@H]1CC[C@H]2[C@@H](C)C(n3cc(-c4ccc(F)cc4)nn3)O[C@@H]3O[C@@]4(C)CC[C@@H]1[C@]32OO4` (stereo partly drawn) here?
A: Its GI50 is 50 nM.

Q: Which GI50 does the source give for `C[C@@H]1[C@@H](n2cc(-c3cc(F)cc(F)c3)nn2)O[C@@H]2O[C@@]3(C)CC[C@H]4[C@H](C)CC[C@@H]1[C@@]24OO3` here?
A: The GI50 was 30 nM.

Q: With `C[C@@H]1[C@@H](n2cc(-c3ccccc3C(F)(F)F)nn2)O[C@@H]2O[C@@]3(C)CC[C@H]4[C@H](C)CC[C@@H]1[C@@]24OO3` as the compound, how does the GI50 read?
A: The GI50 was 30 nM.

Q: Which GI50 does the source give for `Cc1ccc(-c2cn(C3O[C@@H]4O[C@@]5(C)CC[C@H]6[C@H](C)CC[C@@H]([C@H]3C)[C@@]46OO5)nn2)cc1` (stereo partly drawn) here?
A: Its GI50 is 50 nM.

tested on: A 172; assay: Cytotoxicity against human A-172 cells assessed as cell growth inhibition measured after 48 hrs by MTT assay; assay type: functional; conditions: not given

Q: For `CCCCCc1ccc(-c2cn([C@@H]3O[C@@H]4O[C@@]5(C)CC[C@H]6[C@H](C)CC[C@@H]([C@H]3C)[C@@]46OO5)nn2)cc1`, which GI50 is on record?
A: The GI50 was 50 nM.

Q: For `C[C@H]1[C@H](n2nncc2-c2ccccc2)O[C@@H]2O[C@@]3(C)CC[C@H]4[C@H](C)CC[C@@H]1[C@@]24OO3`, which GI50 is on record?
A: Its GI50 is 40 nM.

Q: With `C[C@H]1[C@H](n2cc(-c3cc(F)cc(F)c3)nn2)O[C@@H]2O[C@@]3(C)CC[C@H]4[C@H](C)CC[C@@H]1[C@@]24OO3` as the compound, how does the GI50 read?
A: Its GI50 is 50 nM.

Q: For `C[C@@H]1[C@@H](n2cc(-c3cccc(Cl)c3)nn2)O[C@@H]2O[C@@]3(C)CC[C@H]4[C@H](C)CC[C@@H]1[C@@]24OO3`, which GI50 is on record?
A: Its GI50 is 30 nM.

Q: With `C[C@@H]1CC[C@H]2[C@@H](C)C(n3cc(-c4ccc(F)cc4)nn3)O[C@@H]3O[C@@]4(C)CC[C@@H]1[C@]32OO4` (stereo partly drawn) as the compound, how does the GI50 read?
A: The GI50 was 50 nM.

Q: Which GI50 does the source give for `C[C@@H]1[C@@H](n2cc(-c3cc(F)cc(F)c3)nn2)O[C@@H]2O[C@@]3(C)CC[C@H]4[C@H](C)CC[C@@H]1[C@@]24OO3` here?
A: Its GI50 is 30 nM.

Q: Which GI50 does the source give for `C[C@@H]1[C@@H](n2cc(-c3ccccc3C(F)(F)F)nn2)O[C@@H]2O[C@@]3(C)CC[C@H]4[C@H](C)CC[C@@H]1[C@@]24OO3` here?
A: Its GI50 is 30 nM.

Q: With `Cc1ccc(-c2cn(C3O[C@@H]4O[C@@]5(C)CC[C@H]6[C@H](C)CC[C@@H]([C@H]3C)[C@@]46OO5)nn2)cc1` (stereo partly drawn) as the compound, how does the GI50 read?
A: Its GI50 is 50 nM.

tested on: B16; assay: Cytotoxicity against mouse B16 cells assessed as cell growth inhibition measured after 48 hrs by MTT assay; assay type: functional; conditions: not given

Q: For `CCCCCc1ccc(-c2cn([C@@H]3O[C@@H]4O[C@@]5(C)CC[C@H]6[C@H](C)CC[C@@H]([C@H]3C)[C@@]46OO5)nn2)cc1`, which GI50 is on record?
A: The GI50 was 50 nM.

Q: With `C[C@H]1[C@H](n2nncc2-c2ccccc2)O[C@@H]2O[C@@]3(C)CC[C@H]4[C@H](C)CC[C@@H]1[C@@]24OO3` as the compound, how does the GI50 read?
A: Its GI50 is 40 nM.

Q: With `C[C@H]1[C@H](n2cc(-c3cc(F)cc(F)c3)nn2)O[C@@H]2O[C@@]3(C)CC[C@H]4[C@H](C)CC[C@@H]1[C@@]24OO3` as the compound, how does the GI50 read?
A: Its GI50 is 50 nM.

Q: For `C[C@@H]1[C@@H](n2cc(-c3cccc(Cl)c3)nn2)O[C@@H]2O[C@@]3(C)CC[C@H]4[C@H](C)CC[C@@H]1[C@@]24OO3`, which GI50 is on record?
A: Its GI50 is 30 nM.

Q: With `C[C@@H]1CC[C@H]2[C@@H](C)C(n3cc(-c4ccc(F)cc4)nn3)O[C@@H]3O[C@@]4(C)CC[C@@H]1[C@]32OO4` (stereo partly drawn) as the compound, how does the GI50 read?
A: The GI50 was 50 nM.

Q: With `C[C@@H]1[C@@H](n2cc(-c3cc(F)cc(F)c3)nn2)O[C@@H]2O[C@@]3(C)CC[C@H]4[C@H](C)CC[C@@H]1[C@@]24OO3` as the compound, how does the GI50 read?
A: The GI50 was 30 nM.

Q: For `C[C@@H]1[C@@H](n2cc(-c3ccccc3C(F)(F)F)nn2)O[C@@H]2O[C@@]3(C)CC[C@H]4[C@H](C)CC[C@@H]1[C@@]24OO3`, which GI50 is on record?
A: Its GI50 is 30 nM.

Q: For `Cc1ccc(-c2cn(C3O[C@@H]4O[C@@]5(C)CC[C@H]6[C@H](C)CC[C@@H]([C@H]3C)[C@@]46OO5)nn2)cc1` (stereo partly drawn), which GI50 is on record?
A: Its GI50 is 50 nM.

tested on: DLD-1; assay: Cytotoxicity against human DLD-1 cells assessed as cell growth inhibition measured after 48 hrs by MTT assay; assay type: functional; conditions: not given

Q: For `CCCCCc1ccc(-c2cn([C@@H]3O[C@@H]4O[C@@]5(C)CC[C@H]6[C@H](C)CC[C@@H]([C@H]3C)[C@@]46OO5)nn2)cc1`, which GI50 is on record?
A: Its GI50 is 50 nM.

Q: For `C[C@H]1[C@H](n2nncc2-c2ccccc2)O[C@@H]2O[C@@]3(C)CC[C@H]4[C@H](C)CC[C@@H]1[C@@]24OO3`, which GI50 is on record?
A: The GI50 was 40 nM.

Q: With `C[C@H]1[C@H](n2cc(-c3cc(F)cc(F)c3)nn2)O[C@@H]2O[C@@]3(C)CC[C@H]4[C@H](C)CC[C@@H]1[C@@]24OO3` as the compound, how does the GI50 read?
A: The GI50 was 50 nM.

Q: Which GI50 does the source give for `C[C@@H]1[C@@H](n2cc(-c3cccc(Cl)c3)nn2)O[C@@H]2O[C@@]3(C)CC[C@H]4[C@H](C)CC[C@@H]1[C@@]24OO3` here?
A: Its GI50 is 30 nM.

Q: Which GI50 does the source give for `C[C@@H]1CC[C@H]2[C@@H](C)C(n3cc(-c4ccc(F)cc4)nn3)O[C@@H]3O[C@@]4(C)CC[C@@H]1[C@]32OO4` (stereo partly drawn) here?
A: The GI50 was 50 nM.

Q: For `C[C@@H]1[C@@H](n2cc(-c3cc(F)cc(F)c3)nn2)O[C@@H]2O[C@@]3(C)CC[C@H]4[C@H](C)CC[C@@H]1[C@@]24OO3`, which GI50 is on record?
A: The GI50 was 30 nM.

Q: With `C[C@@H]1[C@@H](n2cc(-c3ccccc3C(F)(F)F)nn2)O[C@@H]2O[C@@]3(C)CC[C@H]4[C@H](C)CC[C@@H]1[C@@]24OO3` as the compound, how does the GI50 read?
A: Its GI50 is 30 nM.

Q: With `Cc1ccc(-c2cn(C3O[C@@H]4O[C@@]5(C)CC[C@H]6[C@H](C)CC[C@@H]([C@H]3C)[C@@]46OO5)nn2)cc1` (stereo partly drawn) as the compound, how does the GI50 read?
A: Its GI50 is 50 nM.

tested on: SiHa; assay: Cytotoxicity against human SiHa cells assessed as cell growth inhibition measured after 48 hrs by MTT assay; assay type: functional; conditions: not given

Q: For `CCCCCc1ccc(-c2cn([C@@H]3O[C@@H]4O[C@@]5(C)CC[C@H]6[C@H](C)CC[C@@H]([C@H]3C)[C@@]46OO5)nn2)cc1`, which GI50 is on record?
A: The GI50 was 50 nM.

Q: For `C[C@H]1[C@H](n2nncc2-c2ccccc2)O[C@@H]2O[C@@]3(C)CC[C@H]4[C@H](C)CC[C@@H]1[C@@]24OO3`, which GI50 is on record?
A: The GI50 was 40 nM.

Q: For `C[C@H]1[C@H](n2cc(-c3cc(F)cc(F)c3)nn2)O[C@@H]2O[C@@]3(C)CC[C@H]4[C@H](C)CC[C@@H]1[C@@]24OO3`, which GI50 is on record?
A: The GI50 was 50 nM.

Q: For `C[C@@H]1[C@@H](n2cc(-c3cccc(Cl)c3)nn2)O[C@@H]2O[C@@]3(C)CC[C@H]4[C@H](C)CC[C@@H]1[C@@]24OO3`, which GI50 is on record?
A: Its GI50 is 30 nM.

Q: For `C[C@@H]1CC[C@H]2[C@@H](C)C(n3cc(-c4ccc(F)cc4)nn3)O[C@@H]3O[C@@]4(C)CC[C@@H]1[C@]32OO4` (stereo partly drawn), which GI50 is on record?
A: The GI50 was 50 nM.

Q: With `C[C@@H]1[C@@H](n2cc(-c3cc(F)cc(F)c3)nn2)O[C@@H]2O[C@@]3(C)CC[C@H]4[C@H](C)CC[C@@H]1[C@@]24OO3` as the compound, how does the GI50 read?
A: The GI50 was 30 nM.

Q: Which GI50 does the source give for `C[C@@H]1[C@@H](n2cc(-c3ccccc3C(F)(F)F)nn2)O[C@@H]2O[C@@]3(C)CC[C@H]4[C@H](C)CC[C@@H]1[C@@]24OO3` here?
A: Its GI50 is 30 nM.

Q: With `Cc1ccc(-c2cn(C3O[C@@H]4O[C@@]5(C)CC[C@H]6[C@H](C)CC[C@@H]([C@H]3C)[C@@]46OO5)nn2)cc1` (stereo partly drawn) as the compound, how does the GI50 read?
A: Its GI50 is 50 nM.
